Where two headings read alike, the source gives them in different places.
Molecular target: one or more of HDAC-1, HDAC-2, HDAC-3, HDAC-4, HDAC-5, HDAC-6, HDAC-7, HDAC-8, HDAC-9, HDAC-10 and HDAC-11
Assay: Inhibition of Histone Deacetylase Enzymatic Activity (Boc-Lys(Ac)-AMC substrate, Fluor-de-Lys developer)
Type: biochemical
Conditions: read-out: HDAC Inhibition (IC50 μM) HDAC Enzyme
Procedure: The following protocol is used to assay the compounds of the disclosure.
The mixture is pre-incubated for 5 minutes at room temperature. The reaction is started by bringing the temperature to 37° C. and adding 16 μl substrate. Total reaction volume is 50 μl.
In the Tables 8, 9 and 10, A≦0.05 μM; 0.05 μM<B≦0.1 μM; 0.1 μM<C≦1 μM; and 1 μM<D≦10 μM.

Row | Compound | IC50 (Table 10) | IC50 (Table 8)
1 | O=C(NO)c1ccc(OCCN2C(=O)c3ccccc3Oc3ccccc32)cc1Cl | 1 to 10 µM | 
2 | O=C(NO)c1ccc(OCCN2C(=O)c3ccccc3Oc3ccccc32)cc1F | 0.05 to 0.1 µM | 
3 | O=C(C=C1c2ccccc2C=Cc2ccccc21)NO | 0.1 to 1 µM | 
4 | O=C(C=C1c2ccccc2CCc2ccccc21)NO | 1 to 10 µM | 
5 | O=C(NO)c1cnc(NC2c3ccccc3CCc3ccccc32)nc1 | < 0.05 µM | 
6 | O=C(NO)c1cn2c(n1)sc1ccccc12 | 0.1 to 1 µM | 
7 | O=C(NO)c1ccc(COC2c3ccccc3CCc3ccccc32)cc1 | 0.1 to 1 µM | 
8 | O=C(NO)c1cccc(COC2c3ccccc3CCc3ccccc32)c1 | 0.1 to 1 µM | 
9 | O=C(NO)c1cccc(CNC2c3ccccc3CCc3ccccc32)c1 | 0.1 to 1 µM | 
10 | O=C(NO)c1cnc(N2C[C@H]3C[C@@]3(c3cccc(C(F)(F)F)c3)C2)nc1 | 0.1 to 1 µM | 
11 | O=C(NO)c1cnc(N2C[C@H]3C[C@@]3(c3ccc(C(F)(F)F)cc3)C2)nc1 | 0.1 to 1 µM | 
12 | CN1CCN(C2=Nc3cc(C(=O)NO)ccc3Oc3ccccc32)CC1 |  | 0.1 to 1 µM
13 | O=C(NO)c1cnc(N2C[C@H]3C[C@@]3(c3ccc(Cl)c(Cl)c3)C2)nc1 [2-((1R,5S)-1-(3,4-dichlorophenyl)-3-azabicyclo[3.1.0]hexan-3-yl)-N-hydroxypyrimidine-5-carboxamide] | 0.1 to 1 µM | 
14 | O=C(NO)c1cnc(N2C[C@@H]3C[C@]3(c3ccc(Cl)c(Cl)c3)C2)nc1 [2-((1S,5R)-1-(3,4-dichlorophenyl)-3-azabicyclo[3.1.0]hexan-3-yl)-N-hydroxypyrimidine-5-carboxamide] | 0.1 to 1 µM | 
15 | O=C(NO)c1cnc(NC(c2ccc(F)cc2)c2ccc(F)cc2)nc1 [2-(bis(4-fluorophenyl)methylamino)-N-hydroxypyrimidine-5-carboxamide] | < 0.05 µM | 
16 | O=C(NO)c1cccc(CN2c3ccccc3Sc3ccccc32)c1 [3-((10H-phenothiazin-10-yl)methyl)-N-hydroxybenzamide] | 0.1 to 1 µM | 
17 | O=C(NO)c1cccc(CN2c3ccccc3Oc3ccccc32)c1 [3-((10H-phenoxazin-10-yl)methyl)-N-hydroxybenzamide] | 1 to 10 µM | 
18 | O=C(NO)c1cccc(CN(c2ccccc2)c2ccccc2)c1 [3-((diphenylamino)methyl)-N-hydroxybenzamide] | 1 to 10 µM | 
19 | O=C(CCCN1C(=O)c2cccnc2N(C2CC2)c2ccccc21)NO [4-(11-cyclopropyl-5-oxo-5H-benzo[b]pyrido[2,3-e][1,4]diazepin-6(11H)-yl)-N-hydroxybutanamide] | 1 to 10 µM | 
20 | O=C(NO)c1ccc(Cn2c3c(c4ccccc42)CCCCCC3)cc1 [4-((6,7,8,9,10,11-hexahydro-5H-cycloocta[b]indol-5-yl)methyl)-N-hydroxybenzamide] | 0.1 to 1 µM | 

Row | Compound | IC50 (Table 10) | IC50 (Table 8)
21 | O=C(NO)c1ccc(CNC2c3ccccc3COc3ccccc32)cc1 (stereo not shown) [4-((6,11-dihydrodibenzo[b,e]oxepin-11-ylamino)methyl)-N-hydroxybenzamide] | 0.1 to 1 µM | 
22 | O=C(NO)c1ccc(CN2c3ccccc3CCc3ccccc32)cc1 [4-((10,11-dihydro-5H-dibenzo[b,f]azepin-5-yl)methyl)-N-hydroxybenzamide] | < 0.05 µM | 
23 | O=C(NO)c1ccc(CNC(c2ccccc2)c2ccccc2)cc1 [4-((benzhydrylamino)methyl)-N-hydroxybenzamide] | < 0.05 µM | 
24 | O=C(NO)c1ccc(CN(c2ccccc2)c2ccccc2)cc1 [4-((diphenylamino)methyl)-N-hydroxybenzamide] | 0.1 to 1 µM | 
25 | O=C(NO)c1ccc(CN2Cc3ccccc3Oc3ccccc32)cc1 [4-(dibenzo[b,f][1,4]oxazepin-10(11H)-ylmethyl)-N-hydroxybenzamide] | < 0.05 µM | 
26 | O=C(NO)c1cnc(N2CCC[C@H]2c2nc3ccccc3[nH]2)nc1 [(S)-2-(2-(1H-benzo[d]imidazol-2-yl)pyrrolidin-1-yl)-N-hydroxypyrimidine-5-carboxamide] | 0.1 to 1 µM | 
27 | O=C(CN1c2ccccc2C=Cc2ccccc21)NO [(Z)-2-(5H-dibenzo[b,f]azepin-5-yl)-N-hydroxyacetamide] | 1 to 10 µM | 
28 | O=C(NO)c1cccc(CN2c3ccccc3C=Cc3ccccc32)c1 [(Z)-3-((5H-dibenzo[b,f]azepin-5-yl)methyl)-N-hydroxybenzamide] | 0.1 to 1 µM | 
29 | CN(O)C(=O)c1ccc(C2=Nc3ccccc3N(C3CC3)c3ccccc32)cc1 [(Z)-4-(5-cyclopropyl-5H-dibenzo[b,e][1,4]diazepin-11-yl)-N-hydroxy-N-methylbenzamide] |  | 1 to 10 µM
30 | O=C1CN=C(c2ccc(C(=O)NO)cc2)c2cc(Br)sc2N1 [(Z)-4-(7-bromo-2-oxo-2,3-dihydro-1H-thieno[2,3-e][1,4]diazepin-5-yl)-N-hydroxybenzamide] | 0.1 to 1 µM | 
31 | O=C(NO)c1ccc(C2=Nc3ccccc3N(CC3CC3)c3ncccc32)cc1 [(Z)-4-(11-(cyclopropylmethyl)-11H-benzo[b]pyrido[2,3-e][1,4]diazepin-5-yl)-N-hydroxybenzamide] |  | 1 to 10 µM
32 | O=C(NO)c1ccc(C2=Nc3ccccc3Sc3ccccc32)cc1 [(Z)-4-(dibenzo[b,f][1,4]thiazepin-11-yl)-N-hydroxybenzamide] |  | 0.1 to 1 µM
33 | O=C(NO)c1ccc(C2=Nc3ccccc3N(CCN3CCOCC3)c3ccccc32)cc1 [(Z)-N-hydroxy-4-(5-(2-morpholinoethyl)-5H-dibenzo[b,e][1,4]diazepin-11-yl)benzamide] |  | 0.1 to 1 µM
34 | O=C(NO)c1ccc2c(c1)N=C(c1ccncc1)c1ccccc1O2 [(Z)-N-hydroxy-11-(pyridin-4-yl)dibenzo[b,f][1,4]oxazepine-8-carboxamide] |  | 0.1 to 1 µM
35 | O=C(NO)c1cnc(N2C[C@H]3C[C@@]3(c3ccccc3)C2)nc1 [N-hydroxy-2-((1R,5S)-1-phenyl-3-azabicyclo[3.1.0]hexan-3-yl)pyrimidine-5-carboxamide] | 0.1 to 1 µM | 
36 | CN1CCc2[nH]c3ccc(C(=O)NO)cc3c2C1 [N-hydroxy-2-methyl-2,3,4,5-tetrahydro-1H-pyrido[4,3-b]indole-8-carboxamide] | 1 to 10 µM | 
37 | O=C(NO)c1ccc(Cn2c(-c3ccccc3)cc3ccccc32)cc1 [N-hydroxy-4-((2-phenyl-1H-indol-1-yl)methyl)benzamide] | 0.1 to 1 µM | 
38 | O=C(NO)c1cc2c(cn1)[nH]c1ccccc12 [N-hydroxy-9H-pyrido[3,4-b]indole-3-carboxamide] | 1 to 10 µM | 
39 | O=CN(O)CCCCCCN1C(=O)c2ccccc2Oc2ccccc21 [N-hydroxy-N-(6-(11-oxodibenzo[b,f][1,4]oxazepin-10(11H)-yl)hexyl)formamide] | < 0.05 µM | 
40 | (Z)-N-(5H-dibenzo[b,f]azepin-5-yl)methyl)benzyl)-N-hydroxyformamide | 0.1 to 1 µM | 

Reference: patent US20170000749A1, “Methods for Treating Cognitive Disorders Using Inhibitors of Histone Deacetylase” (Forum Pharmaceuticals, Inc., priority 2008, published 2017)
